The source of these data is patent US8299102B2, “Heteroarylcyclopropanecarboxamides and their use as pharmaceuticals” (Sanofi, priority 2006, dated 2012).

Each structure is given as a SMILES string. Where a name gives a salt, the structure may show the parent alone.

The assay has as its system eNOS promoter. Kind of assay: Activation of eNOS transcription (eNOS promoter firefly luciferase reporter gene assay). As to conditions: human endothelial cell line stably transfected with eNOS promoter-luciferase construct; 18 h incubation; determined graphically; read-out: EC50 values of transcription induction ratios (TIR). Format: cell-based. The protocol: Activation of eNOS transcription was measured as described in detail by Li et al., “Activation of protein kinase C alpha and/or epsilon enhances transcription of the human endothelial nitric oxide synthase gene”, Mol. Pharmacol. 53 (1998) 630. Briefly, a 3.5 kB long fragment 5′ of the starting codon of the eNOS gene was cloned, sequenced and cloned in firefly luciferase expression plasmids to monitor activation of the eNOS promoter by reporter gene activity. A human endothelial cell line stable transfected and expressing this promoter-reporter construct was used for compound testing. Cells were incubated for 18 h with the compounds.
All compounds were dissolved in sterile dimethyl sulfoxide (DMSO). A final concentration of 0.5% DMSO in complete medium was allowed. Induction of reporter gene expression in these cells was measured using a standard luciferase assay system (Promega, Cat. No. E150) according to the manufacturer's instructions. Luciferase induction in cells incubated with compounds were compared to those incubated with solvent alone. The ratio of both activities (transcription induction ratio, TIR) was plotted as a function of compound concentration. […] EC50 values of transcription induction ratios as a function of compound concentration were determined graphically.

As to `CN(C)C(=O)[C@@H]1C[C@H]1c1ccc(-c2ccccc2F)nc1` (relative stereo) [Example 49, trans-2-[6-(2-Fluoro-phenyl)-pyridin-3-yl]-cyclopropanecarboxylic acid dimethylamide trifluoroacetic acid salt], the EC50 was below 500 nM.

Consider `O=C([C@@H]1C[C@H]1c1ccc(-c2ccc(F)cc2)nc1)N1CCCC1` (relative stereo) [Example 46, {trans-2-[6-(4-fluoro-phenyl)-pyridin-3-yl]-cyclopropyl}-(pyrrolidin-1-yl)-methanone trifluoroacetic acid salt], for which the EC50 lay in the range of 500 to 5000 nM.
